The text below walks through data of patent US4349526A, “Process for the production of hydrogen peroxide” (Degussa Aktiengesellschaft, priority 1980, dated 1982).

A short description of series [1]: Oxidation breakdown on gassing with dry air at 140° C., 2.5 hours. The format is physicochemical. The conditions noted are these: 36 liters dry air per hour, 150 ml urea, decrease of urea based on starting content. The procedure: In a gassing apparatus equipped with gassing frit and intensive condenser in each case gassing was carried out with 150 ml of the ureas set forth in Table 4 using 36 liters of dry air per hour at a temperature of 140° C. for 2.5 hours. During the test half hourly samples were drawn off and the oxidative breakdown followed by means of capillary gas chromatography. As a measure for the oxidative breakdown the decrease of the amount of urea in percentage based on the starting urea content is used.

Series [2] can be described thus: Density. The format is physicochemical.
A short description of series [3]: Viscosity. The format is physicochemical.
Series [4] can be described thus: Mutual solubility of urea and water. It is filed as physicochemical.
Series [5] in a line: Oxidation resistance of hydroquinone solvents, gassing with dry air at 140° C., 50 hours. It is filed as physicochemical. To be noted: 36 liters dry air per hour, 150 ml solvent; gas chromatography. The procedure:
The hydroquinone solvent content in percent based on the starting hydroquinone content was determined gas chromatographically and set forth in Table 5.

For series [6] the following is noted: in words; German AS; cited from earlier work.

On to `CN(C(=O)N1CCOCC1)c1ccccc1` [N'-methyl-N'-phenylcarbamoyl-N-morpholine], for which the “Oxidation Breakdown After 2.5 hours” value in series [1] was determined as 0%.

As to `CCC(C)N(C)C(=O)N(C)c1ccccc1` (stereo not drawn) [N,N'-dimethyl-N-s-butyl-N'-phenylurea], the “Oxidation Breakdown After 2.5 hours” value in series [1] is recorded as 0%.

As for `CN(C)C(=O)N(C)c1ccccc1` [N,N,N'-trimethyl-N'-phenylurea], in series [2] (Table 2), the “Density (50° C.)” value was 1.0392 g/mL. In addition, the “Oxidation Breakdown After 2.5 hours” value in series [1] is reported as 0%.

In the case of `CC(C)N(C(=O)N(C)c1ccccc1)C(C)C` [N,N-di-i-propyl-N'-methyl-N'-phenylurea], the “Oxidation Breakdown After 2.5 hours” value in series [1] is given as 0%.

`CCCCN(CCCC)C(=O)N(C)c1ccccc1` [N,N-dibutyl-N'-methyl-N'-phenylurea]: the “Density (50° C.)” value in series [2] (Table 2) worked out at 0.9499 g/mL; in series [2] (Table 3), 0.950 g/mL. Further, the “Viscosity (50° C.)” value in series [3] was found to be 9.2 cP. Besides, the “Solubility in Water at 20° C.” value in series [4] came out at 0.01%. For the same molecule, the “Hydroquinone Solvent Content (%) after 50 hours Gassing at 140° C.” value (shortened to “Hydroquinone Solvent Content (%)”) in series [5] stood at 100.0%. For the same molecule, the “Oxidation Breakdown After 2.5 hours” value in series [1] was 0%.

Regarding `CCCCN(CCCC)C(=O)N(CC)CC` [N,N-diethyl-N',N'-dibutylurea, reference compound], the “Hydroquinone Solvent Content (%)” value in series [5] worked out at 86.6%. Also, the “Oxidation Breakdown After 2.5 hours” value in series [1] is 9.2%.

Regarding `CCN(CC)C(=O)N(C)c1ccccc1` [N,N-diethyl-N'-methyl-N'-phenylurea], the “Density (50° C.)” value in series [2] (Table 2) turned out to be 0.9941 g/mL. Further, the “Oxidation Breakdown After 2.5 hours” value in series [1] amounted to 0%.

With `CC(C)N(C(=O)N(C)C)C(C)C` [N,N-dimethyl-N'-di-i-propylurea, reference compound], the “Oxidation Breakdown After 2.5 hours” value in series [1] worked out at 2.6%.

In the case of `CCCN(CCC)C(=O)N(C)c1ccccc1` [N,N-dipropyl-N'-methyl-N'-phenylurea], the “Density (50° C.)” value in series [2] (Table 2) is 0.9690 g/mL. Further, the “Hydroquinone Solvent Content (%)” value in series [5] was 100.0%. Besides, in series [1], the “Oxidation Breakdown After 2.5 hours” value worked out at 0%.

In the case of `CC(C)CC(O)CC(C)C` [di-i-butylcarbinol], the “Hydroquinone Solvent Content (%)” value in series [5] stood at 16.6%.

Turning to `CC(C)(C)c1ccccc1` [tert. butyl benzene], in series [6], the oxidation resistance entry is “oxidation resistant”.

For the molecule `CCCCC(CC)COP(=O)(OCC(CC)CCCC)OCC(CC)CCCC` (stereo not drawn) [tris-2-ethylhexyl phosphate], the “Hydroquinone Solvent Content (%)” value in series [5] is reported as 88.3%.

Regarding N,N-di-i-propyl-N'-phenylurea, in series [5], the “Hydroquinone Solvent Content (%)” value is on record as 100.0%.

On to methylcyclohexyl acetate, for which, in series [5], the “Hydroquinone Solvent Content (%)” value is given as 77.4%.
